This is an account of results in ChEMBL document CHEMBL4184249, “Structural development of tetrachlorophthalimides as liver X receptor β (LXRβ)-selective agonists with improved aqueous solubility” (Bioorg Med Chem Lett, 2018).

The experiment has as its target T1, Retinoic acid receptor alpha (Homo sapiens) (UniProt P10276).
T1 sequence (whole entry): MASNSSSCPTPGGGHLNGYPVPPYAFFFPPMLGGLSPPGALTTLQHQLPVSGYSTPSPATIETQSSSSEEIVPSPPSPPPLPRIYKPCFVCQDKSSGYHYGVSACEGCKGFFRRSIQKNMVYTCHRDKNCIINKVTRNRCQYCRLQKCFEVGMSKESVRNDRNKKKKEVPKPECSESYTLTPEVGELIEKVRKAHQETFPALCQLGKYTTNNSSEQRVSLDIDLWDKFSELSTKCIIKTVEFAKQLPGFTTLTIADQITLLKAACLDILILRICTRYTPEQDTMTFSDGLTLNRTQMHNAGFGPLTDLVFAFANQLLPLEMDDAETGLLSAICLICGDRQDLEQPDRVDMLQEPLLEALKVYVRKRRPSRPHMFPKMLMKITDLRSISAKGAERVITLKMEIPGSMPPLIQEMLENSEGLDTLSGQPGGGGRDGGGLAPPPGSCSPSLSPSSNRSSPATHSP
The experiment in a line: Agonist activity at GAL4-tagged RARalpha (unknown origin) expressed in HEK293 cells co-expressing CMX-beta-galactosidase at 0.3 to 30 uM incubated for 16 hrs by luciferase reporter gene assay. The class given is cell-based.

Turning to `O=C1c2c(Cl)c(Cl)c(Cl)c(Cl)c2C(=O)N1c1ccccc1/C=C/c1cccs1`, the Efficacy turned out to be 6%.
